Patent US20250041286A1, “CANCER TREATMENT USING KETOTIFEN IN COMBINATION WITH A CHECKPOINT INHIBITOR” (Materia Therapeutics Inc., priority 2021, published 2025)
Entries after “also recorded” stand apart in the source; their conditions may differ.

Tests used:
[1] = test system: MCA205 tumors; test: Hypoxia study, pimonidazole adduct immunofluorescence; format: in vivo, mouse
Description: Mice bearing orthotopic MCA205 or K7M2wt sarcoma tumors were injected (intraperitoneal) with 60 mg/kg of pimonidazole HCl at 2 hours prior to tumor removal. Tumors were removed, washed twice in 1×PBS for 10 minutes and incubated with 4% PFA overnight at 4° C. The fixative was aspirated, and samples were washed twice in 1×PBS for 10 min. Tissue samples were dehydrated in successive ethanol steps and xylene followed by paraffin embedding. Serial sections ([…]) of paraffin-embedded tissues were produced using the microtome (Accu-Cut SRM 200 Rotary Microtome, SAKURA), flattened out into water, and allowed to dry overnight at 37° C. Sections were then deparaffinized and rehydrated as routinely processed for histology. Slides were microwaved in TriSodium Citrate, blocked in serum solution, and incubated with mouse anti-pimonidazole RED 549 conjugate antibody (HP7-100Kit, 1:100) overnight at 4° C. The next day slides were washed, nuclei were stained with DAPI, and tissue sections were mounted. Immunofluorescence images of the slides were taken (FIG. 1A), and hypoxic area fraction across different treatment groups was normalized to DAPI staining.

[2] = test system: MCA205 tumors; test: qPCR mRNA expression levels in tumors; format: in vivo, mouse; conditions: 10 mg/kg ketotifen
Description: (§1) Total RNA was isolated from breast tumors according to the standard Trizol-based protocol (Invitrogen), and cDNA synthesis was performed using reverse transcriptase III (RT-III) enzyme and random hexamers (Invitrogen). Real-time polymerase chain reaction was performed using Sybr Fast Universal Master Mix (KAPA). Reactions were performed using a CFX-96 real-time PCR detection system (BioRad) at the following conditions: 95° C. for 2 minutes, 95° C. for 2 seconds, 60° C. for 20 seconds, 60° C. for 1 second, steps 2-4 for 39 cycles. Real-time PCR analysis and calculation of changes in gene expression between compared groups was performed using the ΔΔ^Ct method. Relative gene expression was normalized based on the expression of β-actin. For qPCR analysis, 3-5 biological samples were used per treatment and 3 technical replicates for each sample.
(§2) mRNA expression levels were evaluated in both mouse sarcoma models by qPCR, as described above.
RT-qPCR, as described above, […].

[3] = test system: K7M2wt tumors; test: qPCR mRNA expression levels in tumors; format: in vivo, mouse; conditions: 10 mg/kg ketotifen, compared with the effect in MCA205
Description: as §1, §2

[4] = test system: MCA205 tumors; test: Tumor-opening experiment (residual solid stress); format: in vivo, mouse; conditions: 5 mg/kg and 10 mg/kg ketotifen
Description: Tumor-opening experiments were performed as an indicator of the amount of residual stress contained within the tissue, using the values of opening after cutting.

[5] = test system: murine MC/9 MCs; test: MC/9 - NIH3T3 transwell co-culture, mast cell degranulation by β-hexosaminidase release; format: cell-based
Description: Given that both MCs and fibroblasts are present in the TME, the consequences of MC activation on myofibroblasts was explored using a co-culture assay in which murine MC/9 MCs and NIH3T3 myofibroblasts were separated by a transwell chamber with micropores that only allowed chemical communication (FIG. 13A). In this system, degranulation efficiency was determined by measuring the concentration of β-hexosaminidase (β-hex) in the supernatant. MC degranulation was induced through exposure to compound 48/80 (C48/80), which binds to the MRGPRB2 receptor (the orthologue of the human G-protein-coupled receptor MRGPRX2). […] Co-cultures treated with a vehicle control and Triton X-100 were used as internal assay control to evaluate background and maximum β-hex release, respectively. Transforming growth factor (TGF)-β1 was used as a fibroblast activator due to its capacity to induce a myofibroblast phenotype of the NIH3T3 cells. MC/9 cells were cultivated with NIH3T3 cells for 24 hours and then treated with either ketotifen or TGFβ for additional 24 hours in low serum medium, followed by a 30 minute sensitization with C48/80.

[6] = test system: K7M2wt tumors; test: Mast cell tryptase staining of tumors; format: in vivo, mouse; conditions: 10 mg/kg ketotifen
From the text: (§3) Finally, to confirm the effect of ketotifen on MC inactivation, ketotifen-treated tumors were stained for tryptase, a serine protease unique to MCs with a role in myofibroblast proliferation and collagen synthesis.

[7] = test system: MCA205 tumors; test: Mast cell tryptase staining of tumors; format: in vivo, mouse; conditions: 10 mg/kg ketotifen
From the text: as §3

CN1CCC(=C2c3ccccc3CC(=O)c3sccc32)CC1 [ketotifen]
pimonidazole positive fraction (hypoxia) ([1]; 1 mg/kg, 5 mg/kg and 25 mg/kg ketotifen): prominent
pimonidazole positive fraction (hypoxia) ([1]; 10 mg/kg ketotifen, MCA205): significantly reduced; also recorded: alleviated hypoxia
mRNA expression of ICAM [2]: increased
mRNA expression of P-selectin (P-sel) [2]: increased
mRNA levels of IFN-γ [2]: upregulated; also recorded: upregulation
mRNA levels of VEGF [2]: without affecting; also recorded: a reduction in VEGF transcripts was not observed
mRNA levels of collagen I encoding gene (Col1A1) [2]: reduced the mRNA levels of collagen I encoding gene (Col1A1) and connective tissue growth factor (CTGR), although not to a statistically significant extent
mRNA levels of connective tissue growth factor (CTGR) [2]: reduced the mRNA levels of collagen I encoding gene (Col1A1) and connective tissue growth factor (CTGR), although not to a statistically significant extent
mRNA levels of hyaluronan synthase 2 (Has2) [2]: no effect
mRNA levels of hyaluronan synthase 3 (Has3) [2]: no effect
mRNA levels of Col1A1, CTGF, Has2, Has3 [3]: A similar effect was observed
tumor opening after cutting (solid stress) [4]: smaller opening
MC degranulation (β-hex release) ([5]; 24 hours treatment, then 30 minute sensitization with C48/80): inhibits degranulation in a dose-dependent manner
reduction in β-hex release compared to C48/80 treatment ([5]; ketotifen 100 μg/ml): more than 50%
tryptase levels [6]: reduced
tryptase levels [7]: reduced
